Reference: patent US12240862B2, “Inhibitors of peptidylarginine deiminases” (Gilead Sciences, Inc., priority 2020, dated 2025)
pIC50: −log10 of the molar value.

Molecular target: T1, human PAD4 (Homo sapiens, UniProt Q9UM07)
T1 construct: human PAD4 (NM_012387), A2P663, was PCR amplified; His-SUMO (N, cleaved yes); made in house; host or cells: E. coli BL21(DE3)
Assay: In vitro PAD4 BAEE biochemical assay
Details: human PAD4, BAEE substrate; 5 nM PAD4, 2 mM calcium chloride, 3 mM BAEE; geometric mean of multiple experiments
Description: The PCR product was ligated into linearized pET-SUMO vector (Invitrogen, Carlsbad, CA), which is part of the Champion™ pET SUMO Protein Expression System. After sequence verification for the correct orientation, the pET-SUMO-hPAD4 expression plasmid was transformed into BL21(DE3) cells.
E. Coli BL21(DE3) cells were inoculated in LB medium with kanamycin at 37° C. until A600 nm reached about 0.5. Protein expression was induced by addition of 0.5 mM IPTG (final) and continued overnight at 16° C. at 220 rpm.
Cells were harvested by centrifugation at 5000 rpm for 10 minutes at 4° C. The pellet was resuspended in 300 ml lysis buffer (20 mM Tris-HCl, pH 8.0, 1 mM EDTA, 500 mM NaCl, 1 mM (tris(2-carboxyethyl)phosphine) (TCEP), 10% glycerol, and 1% Triton X100 and EDTA free protease inhibitor) and lysed by 3× passage through a microfluidizer (Microfluidics, Newton, MA) at 18,000 psi. The cell lysate was clarified by centrifugation at 30,000 rpm for 60 minutes at 4° C. […] Bound protein was eluted with a 0-100% linear gradient of 100 mL Ni-B buffer (Ni A buffer+0.5 M Imidazole).
The protein was then reloaded onto a Ni—HP column for a reverse purification step and recovered in flow through fraction. The protein with His-Sumo tag removed was then polished using a 16/60 Superdex-200 gel filtration column with gel filtration buffer (20 mM Tris pH 8.0, NaCl 400 mM and 1 mM TCEP). The fractions containing the protein were pulled and frozen at −80° C.
The enzymatic activity of human PAD4 was monitored in a biochemical assay in the presence or absence of compounds using the small peptidyl arginine mimic BAEE (Na-Benzoyl-L-arginine ethyl ester hydrochloride) as substrate. PAD4 activity led to deamination of BAEE and release of ammonia. Levels of ammonia were monitored by using an amine coupling reaction and were indicative of PAD4 enzymatic activity.
One hundred nanoliters of test compounds dissolved in DMSO at various concentrations were dispensed into a 384-well black OptiPlate using a Labcyte Echo instrument. Ten microliters of a solution of recombinant PAD4 and calcium chloride diluted in PAD4 assay buffer (50 mM MOPS [3-(N-morpholino) propanesulfonic acid], pH 7.6; 50 mM sodium chloride; 0.05% Tween-20; 2 mM dithiothreitol) was added to the compound-containing plate and was incubated for 30 minutes at 25° C. Ten microliters of a solution of BAEE (Sigma-Aldrich #B4500) diluted in PAD4 assay buffer was then added to start the reaction. Final concentrations were 5 nM PAD4, 2 mM calcium chloride, and 3 mM BAEE. The reaction mixture was incubated at 25° C. for 2 hours and was stopped with the addition of 10 microliters of a solution of 75 mM EDTA (Ethylenediaminetetraacetic acid) in PAD4 assay buffer. Thirty microliters of detection solution (5 mM o-phthalaldehyde, 50 mM MOPS [3-(N-morpholino) propanesulfonic acid], pH 7.6; 50 mM sodium chloride; 0.05% Tween-20; 5 mM dithiothreitol) was then added and the reaction was incubated for 1 hour at 25° C.

T1 sequence (Q9UM07 2-663): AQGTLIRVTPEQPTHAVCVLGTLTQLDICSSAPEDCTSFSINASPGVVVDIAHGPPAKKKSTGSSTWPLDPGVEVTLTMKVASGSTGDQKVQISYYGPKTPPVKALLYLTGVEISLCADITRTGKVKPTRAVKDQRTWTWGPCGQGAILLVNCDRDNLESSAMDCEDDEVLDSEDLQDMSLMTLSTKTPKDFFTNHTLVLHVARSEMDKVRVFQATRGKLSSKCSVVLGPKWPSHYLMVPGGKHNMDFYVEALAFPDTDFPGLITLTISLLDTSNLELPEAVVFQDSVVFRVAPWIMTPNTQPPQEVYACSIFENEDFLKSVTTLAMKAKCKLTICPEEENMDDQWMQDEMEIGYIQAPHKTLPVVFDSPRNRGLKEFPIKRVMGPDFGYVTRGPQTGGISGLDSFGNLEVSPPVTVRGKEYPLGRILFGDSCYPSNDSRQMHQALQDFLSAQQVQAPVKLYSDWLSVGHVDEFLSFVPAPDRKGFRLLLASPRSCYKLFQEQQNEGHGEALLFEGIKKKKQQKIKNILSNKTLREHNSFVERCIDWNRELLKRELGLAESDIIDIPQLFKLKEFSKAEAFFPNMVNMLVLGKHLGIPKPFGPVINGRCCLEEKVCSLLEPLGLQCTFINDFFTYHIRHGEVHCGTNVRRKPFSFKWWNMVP

pIC50	Compound
6.53	COc1cc(C(=O)N2[C@H]3CC[C@@H]2[C@H](N)C3)cc2nc(-c3cc4ccc([C@@H](C)NC(=O)c5ccccc5F)nc4n3CC3CC3)c(C)n12 [Example 15, ~{N}-[(1~{R})-1-[2-[7-[(1~{R}, 2~{R},4~{S})-2-amino-7-azabicyclo [2.2.1]heptane-7-carbonyl]-5-methoxy-3-methylimidazo [1,2-a]pyridin-2-yl]-1-(cyclopropylmethyl)pyrrolo[2,3-b]pyridin-6-yl]ethyl]-2-fluorobenzamide]
6.94	COc1cc(C(=O)N2[C@H]3CC[C@@H]2[C@H](N)C3)cc2nc(-c3cc4ccc([C@@H](C)NC(=O)c5c(F)cccc5F)nc4n3CC3CC3)c(C)n12 [Example 16, ~{N}-[(1~{R})-1-[2-[7-[(1~{R},2~{R},4~{S})-2-amino-7-azabicyclo [2.2.1]heptane-7-carbonyl]-5-methoxy-3-methylimidazo [1,2-a]pyridin-2-yl]-1-(cyclopropylmethyl)pyrrolo[2,3-b]pyridin-6-yl]ethyl]-2,6-difluorobenzamide]
6.46	COc1ccccc1C(=O)N[C@H](C)c1ccc2cc(-c3nc4cc(C(=O)N5[C@H]6CC[C@@H]5[C@H](N)C6)cc(OC)n4c3C)n(CC3CC3)c2n1 [Example 17]
6.24	COc1cc(C(=O)N2[C@H]3CC[C@@H]2[C@H](N)[C@H](OCC(F)F)C3)cc2nc(-c3cc4ccc([C@@H](C)NC(=O)C56CC(F)(C5)C6)nc4n3CC3CC3)c(C)n12 [Example 18]
5.41	COc1cc(C(=O)N2C[C@@H]3CCN[C@@H]3C2)cc2nc(-c3cc4ccc([C@@H](C)NC(=O)C56CC(F)(C5)C6)nc4n3CC3CC3)c(C)n12 [Example 20, ~{N}-[(1~{R})-1-[2-[7-[(3~{a}~{S}, 6~{a}~{S})-2,3,3~{a}, 4,6,6~{a}-hexahydro-1~{H}-pyrrolo[3,4-b]pyrrole-5-carbonyl]-5-methoxy-3-methylimidazo[1,2-a]pyridin-2-yl]-1-(cyclopropylmethyl)pyrrolo[2,3-b]pyridin-6-yl]ethyl]-3-fluorobicyclo[1.1.1] pentane-1-carboxamide]
5.69	COc1cc(C(=O)N2C[C@H]3CCN[C@H]3C2)cc2nc(-c3cc4ccc([C@@H](C)NC(=O)C56CC(F)(C5)C6)nc4n3CC3CC3)c(C)n12 [Example 21]
6.32	COc1cc(C(=O)N2[C@H]3CC[C@@H]2[C@H](N)[C@H](OC)C3)cc2nc(-c3cc4ccc([C@@H](C)NC(=O)C56CC(F)(C5)C6)nc4n3CC3CC3)c(C)n12 [Example 22, ~{N}-[(1~{R})-1-[2-[7-[(1~{R},2~{S},3~{R}, 5~{S})-2-amino-3-methoxy-8-azabicyclo [3.2.1]octane-8-carbonyl]-5-methoxy-3-methylimidazo [1,2-a]pyridin-2-yl]-1-(cyclopropylmethyl)pyrrolo[2,3-b]pyridin-6-yl]ethyl]-3-fluorobicyclo[1.1.1] pentane-1-carboxamide]
7.21	COCc1nn(C)cc1C(=O)N[C@H](C)c1ccc2cc(-c3nc4cc(C(=O)N5[C@H]6CC[C@@H]5[C@H](N)C6)cc(OC)n4c3C)n(CC3CC3)c2n1 [Example 23, ~{N}-[(1~{R})-1-[2-[7-[(1~{R},2~{R},4~{S})-2-amino-7-azabicyclo [2.2.1]heptane-7-carbonyl]-5-methoxy-3-methylimidazo [1,2-a]pyridin-2-yl]-1-(cyclopropylmethyl)pyrrolo[2,3-b]pyridin-6-yl]ethyl]-3-(methoxymethyl)-1-methylpyrazole-4-carboxamide]
5.05	COc1cc(C(=O)N2C[C@H]3C[C@@]3(N)C2)cc2nc(-c3cc4ccc([C@@H](C)NC(=O)C56CC(F)(C5)C6)nc4n3CC3CC3)c(C)n12 [Example 24, ~{N}-[(1~{R})-1-[2-[7-[(1~{S},5~{R})-1-amino-3-azabicyclo [3.1.0]hexane-3-carbonyl]-5-methoxy-3-methylimidazo [1,2-a]pyridin-2-yl]-1-(cyclopropylmethyl)pyrrolo[2,3-b]pyridin-6-yl]ethyl]-3-fluorobicyclo[1.1.1] pentane-1-carboxamide]
5.35	COc1cc(C(=O)N2C[C@@H]3C[C@]3(N)C2)cc2nc(-c3cc4ccc([C@@H](C)NC(=O)C56CC(F)(C5)C6)nc4n3CC3CC3)c(C)n12 [Example 25, ~{N}-[(1~{R})-1-[2-[7-[(1~{R},5~{S})-1-amino-3-azabicyclo [3.1.0]hexane-3-carbonyl]-5-methoxy-3-methylimidazo [1,2-a]pyridin-2-yl]-1-(cyclopropylmethyl)pyrrolo[2,3-b]pyridin-6-yl]ethyl]-3-fluorobicyclo[1.1.1] pentane-1-carboxamide]
6.82	COc1nn(C)cc1C(=O)N[C@H](C)c1ccc2cc(-c3nc4cc(C(=O)N5[C@H]6CC[C@@H]5[C@H](N)C6)cc(OC)n4c3C)n(CC3CC3)c2n1 [Example 26, ~{N}-[(1~{R})-1-[2-[7-[(1~{R},2~{R},4~{S})-2-amino-7-azabicyclo [2.2.1]heptane-7-carbonyl]-5-methoxy-3-methylimidazo [1,2-a]pyridin-2-yl]-1-(cyclopropylmethyl)pyrrolo[2,3-b]pyridin-6-yl]ethyl]-3-methoxy-1-methylpyrazole-4-carboxamide]
6.97	COCC1(C(=O)N[C@H](C)c2ccc3cc(-c4nc5cc(C(=O)N6[C@H]7CC[C@@H]6[C@H](N)C7)cc(OC)n5c4C)n(CC4CC4)c3n2)CCC1 [Example 29, ~{N}-[(1~{R})-1-[2-[7-[(1~{R},2~{R},4~{S})-2-amino-7-azabicyclo [2.2.1]heptane-7-carbonyl]-5-methoxy-3-methylimidazo[1,2-a]pyridin-2-yl]-1-(cyclopropylmethyl)pyrrolo[2,3-b]pyridin-6-yl]ethyl]-1-(methoxymethyl) cyclobutane-1-carboxamide]
7.08	COc1cc(C(=O)N2[C@H]3CC[C@@H]2[C@H](N)C3)cc2nc(-c3cc4ccc([C@@H](C)NC(=O)c5cccn(C)c5=O)nc4n3CC3CC3)c(C)n12 [Example 30, ~{N}-[(1~{R})-1-[2-[7-[(1~{R}, 2~{R},4~{S})-2-amino-7-azabicyclo [2.2.1]heptane-7-carbonyl]-5-methoxy-3-methylimidazo [1,2-a]pyridin-2-yl]-1-(cyclopropylmethyl)pyrrolo[2,3-b]pyridin-6-yl]ethyl]-1-methyl-2-oxopyridine-3-carboxamide]
6.31	COc1cc(C(=O)N2CC[C@H]3CCCN[C@H]3C2)cc2nc(-c3cc4ccc([C@@H](C)NC(=O)C56CC(F)(C5)C6)nc4n3CC3CC3)c(C)n12 [Example 31, ~{N}-[(1~{R})-1-[2-[7-[(4~{a}~{R}, 8~{a}~{R})-2,3,4,4~{a},5,6,8,8~{a}-octahydro-1~{H}-1,7-naphthyridine-7-carbonyl]-5-methoxy-3-methylimidazo [1,2-a]pyridin-2-yl]-1-(cyclopropylmethyl)pyrrolo[2,3-b]pyridin-6-yl]ethyl]-3-fluorobicyclo[1.1.1] pentane-1-carboxamide]
7.08	COc1cc(C(=O)N2[C@H]3CC[C@@H]2[C@H](N)C3)cc2nc(-c3cc4ccc([C@@H](C)NC(=O)CC5(OC)CCC5)nc4n3CC3CC3)c(C)n12 [Example 32, ~{N}-[(1~{R})-1-[2-[7-[(1~{R},2~{R},4~{S})-2-amino-7-azabicyclo [2.2.1]heptane-7-carbonyl]-5-methoxy-3-methylimidazo[1,2-a]pyridin-2-yl]-1-(cyclopropylmethyl)pyrrolo[2,3-b]pyridin-6-yl]ethyl]-2-(1-methoxycyclobutyl) acetamide]
7.16	COc1cc(C(=O)N2[C@H]3CC[C@@H]2[C@H](N)C3)cc2nc(-c3cc4ccc([C@@H](C)NC(=O)CC5(OC)CC5)nc4n3CC3CC3)c(C)n12 [Example 33, ~{N}-[(1~{R})-1-[2-[7-[(1~{R},2~{R}, 4~{S})-2-amino-7-azabicyclo[2.2.1]heptane-7-carbonyl]-5-methoxy-3-methylimidazo [1,2-a]pyridin-2-yl]-1-(cyclopropylmethyl)pyrrolo[2,3-b]pyridin-6-yl]ethyl]-2-(1-methoxycyclopropyl) acetamide]
